Results taken from US20100196355A1, “Immunophilin Ligands and Methods for Modulating Immunophilin and Calcium Channel Activity” (Wyeth, priority 2007, published 2010).

Columns and labels:
[1] = system: FKBPs; assay: Size exclusion binding of [14C]-1 to purified recombinant protein; parameters: species or system human; details: 10 μM
Text: (§1) Using Gateway cloning methods developed by Invitrogen (Carlsbad, Calif.), cacnb1/CACNB 1, cacnb4/CACNB4fkbp3/FKBP25, fkbp4/FKBP52, ppid, ppif and fkbp8/FKBP38 genes were cloned into the pDEST17 (N-His6 tag) vector. The His6-CACNB1: TGG548TAA were generated from pDEST17-CACNB1 using QuikChange site-directed mutagenesis kit (Stratagene, LaJolla, Calif.). The His6 tagged protein was purified on a Ni-NTA column (Qiagen, Valencia, Calif.).

[2] = target: T1, CACNB4 (Homo sapiens, UniProt O00305); assay: as above; details: 10 μM
T1 construct: His6 (N); made in house
Text: as §1

[3] = target: T2, PPID (Homo sapiens, UniProt Q08752); assay: as above; details: 10 μM
T2 construct: His6 (N); made in house
T2 sequence (Q08752 whole entry): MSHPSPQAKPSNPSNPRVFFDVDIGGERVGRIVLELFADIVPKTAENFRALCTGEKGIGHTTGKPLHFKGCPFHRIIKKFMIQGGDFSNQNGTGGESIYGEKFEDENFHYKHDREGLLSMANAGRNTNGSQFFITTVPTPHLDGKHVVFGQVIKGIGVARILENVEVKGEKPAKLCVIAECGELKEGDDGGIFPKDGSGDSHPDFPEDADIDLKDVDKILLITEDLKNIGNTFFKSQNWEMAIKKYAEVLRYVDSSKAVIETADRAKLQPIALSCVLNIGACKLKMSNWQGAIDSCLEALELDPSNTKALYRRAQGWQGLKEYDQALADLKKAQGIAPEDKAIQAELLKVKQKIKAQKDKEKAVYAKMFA
Text: as §1

[4] = target: T3, PPIF (Homo sapiens, UniProt P30405); assay: as above; details: 10 μM
T3 construct: His6 (N); made in house
T3 sequence (P30405 30-207): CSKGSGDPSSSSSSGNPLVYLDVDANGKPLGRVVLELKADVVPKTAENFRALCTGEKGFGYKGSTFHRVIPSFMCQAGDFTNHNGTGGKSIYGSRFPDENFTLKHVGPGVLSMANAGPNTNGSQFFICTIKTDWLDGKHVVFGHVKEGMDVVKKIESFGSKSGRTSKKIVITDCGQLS
Text: as §1

[5] = target: T4, His6-CACNB1:TGG548TAA (Homo sapiens, UniProt Q02641); assay: as above; details: 10 μM
T4 construct: His6 (N); made in house
T4 sequence (Q02641 1-547 limits assumed): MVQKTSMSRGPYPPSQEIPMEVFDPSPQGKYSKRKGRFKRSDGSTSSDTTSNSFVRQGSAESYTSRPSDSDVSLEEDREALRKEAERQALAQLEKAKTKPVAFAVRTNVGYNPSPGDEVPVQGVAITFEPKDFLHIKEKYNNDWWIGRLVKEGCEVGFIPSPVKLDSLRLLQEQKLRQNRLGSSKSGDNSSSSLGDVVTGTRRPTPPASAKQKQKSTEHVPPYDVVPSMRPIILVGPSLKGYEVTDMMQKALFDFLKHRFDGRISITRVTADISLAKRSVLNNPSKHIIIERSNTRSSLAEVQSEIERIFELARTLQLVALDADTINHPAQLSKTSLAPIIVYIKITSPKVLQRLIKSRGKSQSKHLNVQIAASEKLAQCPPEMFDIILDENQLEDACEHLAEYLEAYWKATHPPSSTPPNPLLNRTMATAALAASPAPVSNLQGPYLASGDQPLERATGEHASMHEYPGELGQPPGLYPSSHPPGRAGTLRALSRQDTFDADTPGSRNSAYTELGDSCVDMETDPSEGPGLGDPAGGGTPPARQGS
Text: as §1

[6] = target: T5, FKBP38/Ca2+/CaM (Homo sapiens, UniProt Q14318); assay: as above; details: 10 μM; 2 mM Ca2+ and 5 μM CaM
T5 construct: His6 (N); made in house
T5 sequence (Q14318 whole entry): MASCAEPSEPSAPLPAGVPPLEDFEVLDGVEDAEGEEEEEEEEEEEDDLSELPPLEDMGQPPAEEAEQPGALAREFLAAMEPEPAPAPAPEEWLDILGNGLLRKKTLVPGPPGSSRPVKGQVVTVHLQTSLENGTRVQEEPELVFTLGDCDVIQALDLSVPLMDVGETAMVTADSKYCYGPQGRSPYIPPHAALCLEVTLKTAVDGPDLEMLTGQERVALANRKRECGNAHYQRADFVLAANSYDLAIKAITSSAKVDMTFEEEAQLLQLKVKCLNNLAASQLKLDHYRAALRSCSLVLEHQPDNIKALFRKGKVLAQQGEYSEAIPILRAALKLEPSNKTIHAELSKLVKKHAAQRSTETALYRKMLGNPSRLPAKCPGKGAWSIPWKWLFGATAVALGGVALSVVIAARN
Text: as §1

[7] = system: Ca2+ channel in F-11 cells; assay: Whole-cell patch clamp recording of Ca2+ currents in F-11 cells; assay type: cell-based, rat and mouse hybrid; details: 5 μM in the bath for 2 hrs
Method: The whole-cell configuration of the patch-clamp technique was used to record calcium currents from the cells at room temperature using an EPC-9 amplifier (HEKA, Instrutech Corp.) with the acquisition and analysis program Pulse-PulseFit from HEKA (Lambrecht, Germany). Electrodes were fabricated using a P-87 puller (Sutter Instrument). […] The standard bath recording solution is Ca^2+ and Mg^2+ free HBSS (pH 7.4) containing 10 mM HEPES, 10 mM dextrose, and 4 mM BaCl2. Currents were filtered at 3 kHz, and the inward Ca^2+ currents were recorded from cells held at −90 mV with 10 mV depolarizing steps from −80 mV to 60 mV for 50 ms.

[8] = target: T6, His6-tagged FKBP52 (Homo sapiens, UniProt Q02790); assay: [3H]-FK506 binding on Ni-chelated FLASH plate; details: read-out: FKBP 52 (Kd)
T6 construct: made in house
T6 sequence (Q02790 1-459): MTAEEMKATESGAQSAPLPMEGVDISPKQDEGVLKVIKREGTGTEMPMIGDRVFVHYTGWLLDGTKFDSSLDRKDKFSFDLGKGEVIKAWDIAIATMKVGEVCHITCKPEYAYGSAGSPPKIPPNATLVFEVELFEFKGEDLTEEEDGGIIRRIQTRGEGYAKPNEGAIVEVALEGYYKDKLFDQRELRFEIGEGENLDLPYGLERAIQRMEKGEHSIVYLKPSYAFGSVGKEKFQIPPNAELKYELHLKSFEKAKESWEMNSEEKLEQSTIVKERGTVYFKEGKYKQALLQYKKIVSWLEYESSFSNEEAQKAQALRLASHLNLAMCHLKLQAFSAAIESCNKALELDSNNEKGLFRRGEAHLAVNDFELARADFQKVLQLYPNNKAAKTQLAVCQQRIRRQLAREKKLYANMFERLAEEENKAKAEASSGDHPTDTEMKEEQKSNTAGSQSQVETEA
Method: (§2) Reactions were carried out in triplicate at 25° C. for 30 min. Kd were calculated using methods described by Carreras (Anal. Biochem. 298, 57-61 (2001)).

[9] = target: His6-tagged FKBP12 (Homo sapiens, UniProt P62942); assay: [3H]-FK506 binding on Ni-chelated FLASH plate; details: read-out: FKBP 12 (Kd)
His6-tagged FKBP12, sequence (P62942 whole entry): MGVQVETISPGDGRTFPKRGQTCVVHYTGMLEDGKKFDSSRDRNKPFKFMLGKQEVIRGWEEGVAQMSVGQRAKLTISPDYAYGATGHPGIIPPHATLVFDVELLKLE
Method: as §2

[10] = system: Human CD4+ T cells; assay: Immunosuppression assay: IL-2 stimulated CD4+ T-cell proliferation; assay type: cell-based; details: Homo sapiens, CD4+ T cell
Method: Human CD4^+ T cells were purified by negative selection from peripheral blood lymphocytes using RosetteSep as per manufacture's instructions (StemCell Technologies, Inc. Vancouver, British Columbia). Tosyl-activated magnetic microspheres (Dynal, Great Neck, N.Y.) were coated with anti-CD3 Ab (1 μg/10^7 microspheres), and anti-CD28Ab ([…]) as described in Blair et al. J. Immunol., 160:12, 1998. […] Protein-coated microspheres were added to purified CD4+T cells (2×10^6cells/mL, ratio 1 bead: 1 cell) and activated for 72 hours in RPMI, 10% fetal calf serum, 2 mM glutamine media. Cells were harvested, washed, and cultured overnight in fresh media and re-stimulated with IL-2 as described in Bennett et al., J. Immunol. 170:711, 2003. […] Seventy-two hours after culture re-stimulation, plates were pulsed with 1 μCi/well tritiated thymidine and incubated for a 6-16 hour period.

[11] = system: cultured rat cortical neurons; assay: Neuronal survival assay (neurofilament ELISA); assay type: cell-based; details: siRNA-transfected rat cortical neurons; neurofilament ELISA
Method: Cultures were fixed for 30 min with 4% paraformaldehyde at 37° C. Nonspecific binding was blocked by incubating with PBS containing 0.3% Triton X-100 and 5% fetal bovine serum (FBS) for 45 min. Cultures were then incubated overnight at 4° C. with an anti-neurofilament (200 kD) monoclonal antibody (1:1000, clone RT-97, Chemicon, Temecula, Calif.). After washing, a peroxidase-conjugated secondary antibody (1:1000, Vector Labs, Burlingame, Calif.) was applied for 2 h. After three washes, the peroxidase substrate K-BlueMax (Neogen, Lexington, Ky.; Young et al., 1999) was added to the cultures and incubated for 10 min on an orbital shaker. The peroxidase substrate is highly soluble in the K-BlueMax solution. Optical density is then readily measured using a Molecular Devices Spectramax Plus colorimetric plate reader at 650
(§3) Briefly, cortical neuron cultures were prepared from embryonic day 15 (E15) rat embryos (Sprague-Dawley, Charles River Laboratories, Wilmington, Mass.). The embryos were collected, their brains were removed, and the cortices were dissected out in ice-cold phosphate-buffered saline (PBS) without Ca^2+ and Mg^2+. Dissected pieces of cortical tissue were pooled together and transferred to an enzymatic dissociation media containing 20 IU/ml papain in Earle's balanced salt solution (Worthington Biochemical, Freehold, N.J.) and incubated for 30 min at 37° C. After enzymatic dissociation, the papain solution was aspirated and the tissue mechanically triturated with a fire-polished Pasteur pipette in complete media [Neurobasal Medium with B-27 supplement (Gibco, Grand Island, N.Y.), 100 IU/ml penicillin, 100 μg/ml streptomycin, 3.3 μg/ml aphidicolin, 0.5 mM glutamate] containing 2,000 IU/ml DNase and 10-mg/ml ovomucoid protease inhibitor.

[12] = system: cortical neurons; assay: Neurite outgrowth in cortical neurons; assay type: cell-based, rat; details: siRNA-transfected rat cortical neurons, 24 h; control lamin A/C siRNA
Method: Cortical neurons were fixed using 2% paraformaldehyde for 5 min followed by 4% paraformaldehyde for 5 min. Cells were incubated in blocking solution (0.2% Triton-X+1.5% normal goat serum in PBS) followed by primary (anti-neuronal class III β-tubulin (TUJ1) (Covance Innovative Antibodies, Berkeley, Calif.) and secondary antibody (Alexa Fluor 488 goat anti-mouse) (Molecular Probes, Carlsbad, Calif.). Each step was performed at room temperature for 1 hr. Total neurite outgrowth for each condition was analyzed using the Neuronal Profiling Bioapplication on an ArrayScan HCS Reader (Cellomics, Pittsburgh, Pa.).
as §3

9,27-dihydroxy-3-{2-[4-hydroxy-3-methoxycyclohexyl ]-1-methylethyl}-10,21-dimethoxy-6,8,12,14,20,26-hexamethyl-37-phenyl-4,9,10,12,13,14,15,18,21,22,23,24,25,26,27,32,33,34,34a-nonadecahydro-3H-23,27-epoxy-18,15-(epoxyimino)pyrido[2,1-c][1,4]oxazacyclohentriacontine-1,5,11,28,29(6H, 31H)-pentone [Rapamycin analogue I]
binding of [14C]-1 to FKBPs [1]: well | binding of [14C]-Compound 1 to CACNB4 [2]: negligibly | binding of [14C]-1 to PPID [3]: weakly | binding of [14C]-1 to PPIF [4]: negligibly | binding of [14C]-Compound 1 to mutant His6-CACNB1:TGG548TAA [5]: weakly | binding of [14C]-1 to FKBP38/Ca2+/CaM [6]: negligibly

C=CC[C@@H]1/C=C(\C)C[C@H](C)C[C@H](OC)[C@H]2O[C@@](O)(C(=O)C(=O)N3CCCC[C@H]3C(=O)O[C@H](/C(C)=C/[C@@H]3CC[C@@H](O)[C@H](OC)C3)[C@H](C)[C@@H](O)CC1=O)[C@H](C)C[C@@H]2OC [FK506, reference compound]
Ca2+ current density [7]: 2.9+/−0.1 pA/pF | decrease of Ca2+ current density vs vehicle [7]: 55%

CCC(C)(C)C(=O)C(=O)N1CCC[C@H]1C(=O)OCCCc1cccnc1 [GPI-1046, reference compound]
Kd [8]: > 12 nM | Kd [9]: > 110 nM

CO[C@H]1C[C@@H]2CC[C@@H](C)[C@@](O)(O2)C(=O)C(=O)N2CCCC[C@H]2C(=O)O[C@H]([C@H](C)C[C@@H]2CC[C@@H](O)[C@H](OC)C2)CC(=O)[C@H](C)/C=C(\C)[C@@H](O)[C@@H](OC)C(=O)[C@H](C)C[C@H](C)/C=C/C=C/C=C/1C [Rapamycin, reference compound]
Kd [8]: 1.4 ± 0.1 nM | IC50 [10]: 5 nM

CACNB1 siRNA: siRNA, sense GGAGAAGUACAAUAAUGACTT (SEQ ID NO:15), antisense GUCAUUAUUGUACUUCUCCTT (SEQ ID NO:16) (chemistry not given here)
percent neuronal survival compared to control [11]: 80±3 % of control | total neurite outgrowth compared to control [12]: essentially unchanged

FKBP52 siRNA: siRNA, sense CCUAGCUAUGCUUUUGGCATT (SEQ ID NO:17), antisense UGCCAAAGCAUAGCUAGGTT (SEQ ID NO:18) (chemistry not given here)
percent neuronal survival compared to control [11]: 112±2 % of control | total neurite outgrowth compared to control [12]: 125±12 % of control
